From PMC2063322, “Phase I trial and pharmacokinetics of the tubulin inhibitor 1069C85--a synthetic agent binding at the colchicine site designed to overcome multidrug resistance” (British Journal of Cancer, 1997)
Several values for one entry are separate records, joined by “and”; a condition that tells them apart may be missing. Identical values can stand only once. Like-named read-outs stand apart in the source and are kept apart here.

How the values were obtained:
[1] = Phase I toxicity graded by Common Toxicity Criteria
Description: (§1) British Joumal of Cancer (1997) 75(4), 608-613 ? […] A phase I study was performed using a single oral dose every 3 weeks, administered as a suspension reconstituted in 0.1% Tween 80 and 0.9% saline. The starting dose was 2.8 mg m-2, and dose doubling was permitted until the area under curve (AUC) was ?40% of that at the mouse LD10; thereafter, a modified Fibonacci scheme was used. […] Keywords: tubulin; multidrug resistance; neurotoxicity The tubulin-binding agent 1069C85 was developed from a struc- ture activity investigation of tubulin inhibitors binding at the colchicine site on tubulin. […] No studies were performed using human tumour xenografts. […] METHODS Formulation and drug administration A formulation was developed at the Cancer Research Campaign Formulation Unit. The drug was dispensed into vials as a dry powder and reconstituted as a fine suspension by administration of 0.9% saline containing 0.1% Tween 80 (polysorbate) with vigorous mixing. Immediately before oral administration, the drug suspension was mixed with orange juice both to disguise any possible unpleasant taste and to help ensure complete ingestion.

rats = system: rats; design: method as in data on file, Cancer Research Campaign, 1993; details: 14.3 mg m-2 p.o. (one-tenth mouse LD10), daily x 5 for 4 weeks, rat; ref data on file, Cancer Research Campaign, 1993; cited from earlier work
[2] = Phase I pharmacokinetics: plasma 1069C85 by HPLC after single oral dose; design: Cmax of the patient experiencing grade 3 neurotoxicity: unit not given beside the values
Description: as §1

murine tumours = details: cited from earlier work
[3] = design: method as in data on file Glaxo/Wellcome, 1990; details: monkey, p.o.; ref data on file Glaxo/Wellcome, 1990; cited from earlier work
[4] = Stability of 1069C85 in orange juice; details: suspension mixed with orange juice
Description: as §1

[5] = Protein binding in human plasma (Amicon membrane centrifugation); details: 25 C
Description: as §1

[6] = system: murine tumour cell lines with acquired resistance to natural anti-cancer products; details: acquired resistance to a variety of natural anti-cancer products, ref Hodgson et al, 1992, 1994; cited from earlier work
[7] = cited from earlier work
[8] = dog, cited from earlier work
dogs = system: dogs; design: method as in Data on file, Glaxo/Wellcome, 1990; details: 20 mg m-2; ref Data on file, Glaxo/Wellcome, 1990; cited from earlier work
Aqueous solubility = assay type: physicochemical
[9] = Tumour response assessment in phase I patients; assay type: in vivo, human; details: 39 patients, 2.8-200 mg m-2
Description: as §1

mice = system: mice; design: method as in data on file, Cancer Research Campaign, 1993; details: ref data on file, Cancer Research Campaign, 1993, cited from earlier work
mammalian tubulin = system: mammalian tubulin; design: method as in Hodgson et al 1992; Hodgson, 1994; details: at concentrations cytotoxic to P388 cells, ref Hodgson et al 1992, 1994; cited from earlier work
human tumour cell lines = details: ref Raynaud et al, 1994; cited from earlier work
rodents = system: rodents; design: method as in data on file, Cancer Research Campaign, 1993; details: ref data on file, Cancer Research Campaign, 1993; cited from earlier work
[10] = design: method as in Raynaud et al, 1994; details: mouse, estimated; ref Raynaud et al, 1994; cited from earlier work
[11] = 1995, cited from earlier work
[12] = design: method as in van Asperen et al (1996); details: ref van Asperen et al (1996); cited from earlier work
[13] = grade 3 patient, 200 mg m-2 non-micronized
[14] = grade 4 neurotoxicity patient, 100 mg m-2 micronized
[15] = patient no. 39, 50 mg m-2 micronized
[16] = single patient, 200 mg m-2 non-micronized, visual disturbance, flashing lights
[17] = micronized, 25 mg m-2, mean (SD), 5 patients
[18] = micronized, 35.8 mg m-2, 1 patient
[19] = micronized, 50 mg m-2, mean, 2 patients
[20] = micronized, 100 mg m-2, mean, 2 patients previously treated at 200 mg m-2 standard formulation
[21] = non-micronized, 2.8 mg m-2, mean (SD), 3 patients
[22] = non-micronized, 5.6 mg m-2, mean, 2 patients
[23] = non-micronized, 11.2 mg m-2, mean (SD), 4 patients
[24] = non-micronized, 22.4 mg m-2, mean (SD), 3 patients
[25] = non-micronized, 35.8 mg m-2, mean (SD), 4 patients
[26] = non-micronized, 50 mg m-2, mean, 2 patients
[27] = non-micronized, 100 mg m-2, mean (SD), 4 patients
[28] = non-micronized, 200 mg m-2, mean (SD), 4 patients
[29] = single patient (no. 39), 50 mg m-2 micronized
[30] = single patient, 100 mg m-2 micronized, ataxia, confusion, hallucinations, coma
[31] = single patient, 100 mg m-2 micronized, vivid dreams, disturbed sleep
[32] = single patient, 200 mg m-2 non-micronized, ataxia, confusion, disorientation

In the case of COC(=O)Nc1cn2nc(OCc3cc(OC)c(OC)c(OC)c3)ccc2n1 [1069C85], the “incidence of central neurotoxicity (mainly mild sedation)” value ([1]; 200 mg m-2, non-micronized) is reported as “four of five”, the “duration of neurotoxic symptoms” value [1, 13] is reported as 7 days and the “onset of neurotoxic symptoms after dosing” value [1, 13] is reported as 48 h. For the same molecule, the alopecia grade [1, 14] was 2, the neutropenia grade [1, 14] was 3 and the onset of neurotoxicity ([1]; grade 4 patient, 100 mg m-2 micronized) was “approximately 48 h”. For the same molecule, the “severe central neurotoxicity, maximum grade” value ([1]; micronized formulation, doses of 50-100 mg m-2) was ≤ 4, the toxicities observed ([1]; micronized, 25 or 35.8 mg m-2) was “No significant toxicities” and the “nausea and vomiting grade (only toxicities observed)” value ([1]; non-micronized, 2.8 to 22.4 mg m-2) was 1-2. The antiproliferative toxicities ([1]; original formulation, 2.8-200 mg m-2) was “no antiproliferative toxicities”, the “day of death attributed to 1069C85” value [1, 15] was 8 days and the thrombocytopenia grade [1, 15] was 3. The “vomiting and diarrhoea grade” value [1, 15] was 2, the neutropenia grade ([1]; patient no. 39, 50 mg m-2 micronized, onset day 6) was 4 and the “Cmax at which severe neurotoxicity was not observed” value ([1]; patients) was < 100 ng ml'. The “peak plasma concentration above which CNS neurotoxicity was severe” value ([1]; patients) was “above 100 tg 1-'”, the “Neurotoxicity (CTC grade)” value ([1]; single patient (no. 39), 50 mg m-2 micronized, agitation, confusion and visual hallucinations, days 2-6) was 3 and the “Neurotoxicity (CTC grade)” value ([1]; single patient, 100 mg m-2 micronized, ataxia, confusion, hallucinations, coma, days 2-7) was 4. The “Neurotoxicity (CTC grade)” value ([1]; single patient, 100 mg m-2 micronized, vivid dreams, disturbed sleep, days 3-6) was 1, the “Neurotoxicity (CTC grade)” value ([1]; single patient, 200 mg m-2 non-micronized, ataxia, confusion, disorientation, days 2-6) was 3 and the “Neurotoxicity (CTC grade)” value [1, 16] was 1. For the same molecule, the “animals in which repeat dosing proved fatal” value (rats) was “seven out of ten”, the “Cmax of the patient experiencing grade 3 neurotoxicity” value ([2]; 200 mg m-2, non-micronized) was 159 and the AUC [2, 17] was 1061.8 (?269.1) gg 1-1 h-1. For the same molecule, the Cmax [2, 17] was 58.6 (?19.5) hg 1-', the Tmax [2, 17] was 9.8 (?3.2) h and the t1/2 [2, 17] was 38.9 (?36.9) h. It also gave an AUC [2, 18] of 1262.3 gg 1-1 h-1, a Cmax [2, 18] of 70.7 hg 1-' and a Tmax [2, 18] of 6.3 h. The t1/2 [2, 18] was 16.3 h, the AUC [2, 19] was 3786.9 gg 1-1 h-1 and the Cmax [2, 19] was 198.9 hg 1-'. It also gave a Tmax [2, 19] of 10.6 h, a t1/2 [2, 19] of 24 h and an AUC [2, 20] of 15011.7 gg 1-1 h-1. The Cmax [2, 20] was 292.3 hg 1-', the Tmax [2, 20] was 6.1 h and the t1/2 [2, 20] was 24.7 h. The “time after dosing at which drug was still detectable in the cerebrospinal fluid” value ([2]; most severely affected patient, 100 mg m-2 micronized) was 8 days and 7 days, the “terminal half-life (range between patients)” value ([2]; non-micronized formulation, one-compartment model) was 7 to 107 h and the Cmax [2, 21] was 7.3 (?3.4) hg 1-'. The Tmax [2, 21] was 10 (?7.1) h, the t1/2 [2, 21] was 29 (+22) h and the AUC ([2]; non-micronized, 2.8 mg m-2 single oral dose, mean (SD), 3 patients, AUC to 24 h) was 69.9 (?30.2) gg 1-1 h-1. The AUC [2, 22] was 209.7 gg 1-1 h-1, the Cmax [2, 22] was 13 hg 1-' and the Tmax [2, 22] was 9.5 h. The t1/2 [2, 22] was 39.5 h, the AUC [2, 23] was 371.5 (?178.7) gg 1-1 h-1 and the Cmax [2, 23] was 21.7 (?11.3) hg 1-'. For the same molecule, the Tmax [2, 23] was 5.3 (?1.2) h, the t1/2 [2, 23] was 23.2 (?6.9) h and the AUC [2, 24] was 476.4 (?206.8) gg 1-1 h-1. The Cmax [2, 24] was 25.9 (?11.4) hg 1-', the Tmax [2, 24] was 7.6 (?1.9) h and the t1/2 [2, 24] was 35.7 (?15.1) h. The AUC [2, 25] was 507.5 (?153.6) gg 1-1 h-1, the Cmax [2, 25] was 33 (?13.9) hg 1-' and the Tmax [2, 25] was 7.8 (?3.4) h. The t1/2 [2, 25] was 22.9 (?19.5) h, the AUC [2, 26] was 423.3 gg 1-1 h-1 and the Cmax [2, 26] was 22 hg 1-'. For the same molecule, the Tmax [2, 26] was 7.2 h, the t1/2 [2, 26] was 73.5 h and the AUC [2, 27] was 844.7 (?314.7) gg 1-1 h-1. The Cmax [2, 27] was 48.5 (?25) hg 1-', the Tmax [2, 27] was 4.8 (?1.1) h and the t1/2 [2, 27] was 23 (?4.3) h. The AUC [2, 28] was 3011 (?1771.4) gg 1-1 h-1, the Cmax [2, 28] was 99.8 (?36.9) hg 1-' and the Tmax [2, 28] was 8.8 (?1.9) h. The t1/2 [2, 28] was 18.2 (?3) h, the “terminal elimination half-life (range)” value ([2]; original formulation, single oral dose every 3 weeks, patients) was 18 to 73.5 h and the AUC [2, 29] was 16.4 ItM h. The Cmax [2, 29] was 327 .g l-i, the AUC [2, 30] was 23.4 ItM h and the Cmax [2, 30] was 495 .g l-i. For the same molecule, the AUC [2, 31] was 53.9 ItM h, the Cmax [2, 31] was 90 .g l-i and the AUC [2, 32] was 15.2 ItM h. For the same molecule, the Cmax [2, 32] was 159 .g l-i, the AUC [2, 16] was 5.1 ItM h and the Cmax [2, 16] was 100 .g l-i. For the same molecule, the “activity of the 20 mg kg-1 oral dose” value (murine tumours; 20 mg kg-1, oral, mouse) was “active dose”, the “anti-tumour activity in vivo” value (murine tumours; oral route, a variety of murine tumours) was “confirmed” and the “plasma elimination half-life following oral administration” value [3] was ~2 h. For the same molecule, the “effect of orange juice on the stability” value [4] was “no effect”, the Protein binding [5] was > 99% and the “activity against resistant murine tumour cell lines” value [6] was “retained activity”. For the same molecule, the “increase of bioavailability with micronized drug” value ([7]; mice, preclinical, ref F I Raynaud, personal communication) was “two-threefold”, the oral bioavailability ([7]; mouse, i.v. vehicle DMSO/saline, ref Raynaud et al, 1994) was 20% and the “plasma elimination half-life following oral administration” value ([7]; mouse, p.o., ref Raynaud et al, 1994) was ~8 h. The oral bioavailability ([8]; i.v. formulation dimethyl isosorbide, ref data on file, Glaxo/Wellcome 1990) was 7%, the “plasma elimination half-life following oral administration” value ([8]; p.o., ref Data on file 1990) was “approximately 16 h” and the “toxicity observed in dogs” value (dogs) was “fatal toxicity”. For the same molecule, the aqueous solubility (Aqueous solubility) was “extremely poor”, the objective responses [9] was “no objective responses” and the “LD10, single dose intraperitoneally” value (mice; mice, i.p.) was 39.6 mg m-2. The “LD10, single oral dose” value (mice; mice, p.o.) was 142.2 mg m-2, the “repeat dose that proved to be fatal” value (mice; mouse, i.p., daily x 5 for 4 weeks) was “above 3.9 mg m-2” and the “inhibition of tubulin polymerization” value (mammalian tubulin) was “potent inhibition”. The “activity in resistant human tumour cell lines” value (human tumour cell lines) was “confirmed these findings”, the dose limiting toxicities (rodents) was “myelosuppression and gastrointestinal damage” and the Protein binding [10] was 85-99%.

For CCOC(=O)Nc1cc2c(c(N)n1)N=C(c1ccccc1)[C@H](C)N2 [CI-980], the dose limiting toxicity ([11]; 24 h-infusion schedule, ataxia, confusion and coma, ref Sklarin et al) is given as “dose limiting central neurotoxicity” and the dose limiting toxicity ([11]; 72 h-infusion, ref Rowinsky et al) is given as “dose limiting myelosuppression”.

In the case of CC[C@]1(O)C[C@@H]2CN(CCc3c([nH]c4ccccc34)[C@@](C(=O)OC)(c3cc4c(cc3OC)N(C)[C@H]3[C@@](O)(C(=O)OC)[C@H](OC(C)=O)[C@]5(CC)C=CCN6CC[C@]43[C@@H]65)C2)C1 [vinblastine], the “accumulation of drug in the brains of P-glycoprotein-deficient versus wild-type mice” value [12] is given as “substantially greater accumulation”.
